ChEMBL document CHEMBL1156829 (Proc Natl Acad Sci U S A, 2008)
pEC50: −log10 of the molar value.

What was measured:
[1] = NOVARTIS: Cytotoxicity against human hepatocellular carcinoma cell line (Huh7); format: toxicity, cell-based, Huh-7; conditions: Huh7 cells (hepatocellular carcinoma cell line)
Plasmodium falciparum [2] = assay: NOVARTIS: Inhibition of Plasmodium falciparum 3D7 (drug-susceptible) proliferation in erythrocyte-based infection assay; format: functional, organism-based
Plasmodium falciparum [3] = assay: NOVARTIS: Inhibition of Plasmodium falciparum W2 (drug-resistant) proliferation in erythrocyte-based infection assay; format: functional, organism-based; conditions: Plasmodium falciparum, W2; read-out: EC50

| SMILES | CC50 [1] [nM] | pEC50 (Plasmodium falciparum [2]; Plasmodium falciparum, 3D7) | pEC50 (Plasmodium falciparum [3]) | pEC50 (Plasmodium falciparum [2]) |
| --- | --- | --- | --- | --- |
| CC(=O)Nc1cccc(NC(=O)CSc2ccc3nnc(-c4ccc(F)cc4)n3n2)c1 | > 10000 | < 5.98 | < 5.90 |  |
| Oc1ccc(-c2cncc(NCc3ccccc3)n2)cc1 | > 10000 | 5.76 | < 5.90 |  |
| COCCNCC(O)CON=C1c2ccccc2-c2ccccc21 (configuration not stated) | 23300 | 5.32 | 6.15 |  |
| Cn1cc(/C=C/c2cc[n+](C)cc2)c2ccccc21 | > 8990 |  | 6.50 | 7.03 |
| COCCNC(=S)N(Cc1ccc(F)cc1)Cc1cc2ccc(C)c(C)c2[nH]c1=O | > 10000 | 6.39 | 7.19 |  |
| Cc1ccc(-c2nnc(SCCCC(=O)NC(Cc3ccccc3)c3ccccc3)n2-c2cccc(Cl)c2)cc1 (configuration not stated) | > 27600 | < 4.90 | 6.21 |  |
| CCc1ccc(C(=O)Oc2ccccc2-c2nc3cc(C)ccn3c2NC(C)(C)CC(C)(C)C)cc1 | > 10000 | 6.34 | > 8.03 |  |
| OC(CN1CCN(C2c3ccccc3-c3ccccc32)CC1)Cn1c2ccc(Br)cc2c2cc(Br)ccc21 (configuration not stated) | > 100000 | < 4.95 | 5.29 |  |
| COc1ccc(C=C2SC(=N)N(c3ccccc3OC)C2=O)cc1 | 62900 | 6.79 | 7.06 |  |
| Oc1ccc(C=NN=C(Nc2ccccn2)c2ccccn2)c(O)c1 | > 245 | < 5.90 | < 6.17 |  |
| Cc1ccc2nc(-c3ccccc3)cc(C(=O)Nc3ccc(Cl)c(Cl)c3)c2c1 | > 10000 | < 5.90 | 5.77 |  |
| O=C1N(c2ccccc2)C[C@@H]2C[C@@H](c3ccc(C#CCCO)cc3)N3CCC[C@@]123 | 16800 | 6.08 | 6.12 |  |
| OC(CNCc1ccccc1)Cn1c2ccc(Br)cc2c2cc(Br)ccc21 (configuration not stated) | 9300 | 6.51 | 7.87 |  |
| COc1ccc(S(=O)(=O)N2CCCCC2C(=O)NC(CN2CCCC2)c2ccccc2)cc1 (configuration not stated) | > 10000 | 6.77 | 6.91 |  |
| COc1cccc2cc(-c3csc(NC(=O)CCC(=O)NC4CCCC4)n3)c(=O)oc12 | > 10000 | < 5.90 | < 5.97 |  |
| CCCCCCc1ccc(C(=O)Oc2ccccc2-c2nc3cc(C)ccn3c2NC(C)(C)CC(C)(C)C)cc1 | > 13800 | 6.09 | 6.79 |  |
| CN(C)CCNc1cc(-c2cccc(C(F)(F)F)c2)nc(-c2ccncc2)n1 | > 10000 | < 5.90 | 5.77 |  |

| SMILES | CC50 [1] [nM] | pEC50 (Plasmodium falciparum [2]; Plasmodium falciparum, 3D7) | pEC50 (Plasmodium falciparum [3]) | pEC50 (Plasmodium falciparum [2]) |
| --- | --- | --- | --- | --- |
| Cc1ccccc1Cn1cc(NC(=O)c2cc(-c3cccs3)on2)cn1 | > 10000 | < 5.90 | 5.85 |  |
| CCOc1ccc(CN(CCC(c2ccccc2)c2ccccc2)C(=O)Nc2ccccc2C)cc1 | > 10000 | < 5.87 | 5.73 |  |
| OCCNc1nc(Nc2ccc(Cl)cc2)nc2ccccc12 | 11600 | 6.49 | 6.29 |  |
| Cc1cccc(N(C)c2ccnc3c(-c4cccc(C(N)=O)c4)cnn23)c1 | > 10000 | < 6.07 | < 5.90 |  |
| COc1cc(C(=O)NCc2ccco2)ccc1OC1CCN(CC(c2ccccc2)c2ccccc2)CC1 | > 10000 | 6.93 | 7.23 |  |
| COc1ccc2ccccc2c1C1CC(=O)N2CN(Cc3ccco3)CSC2=C1C#N (configuration not stated) | > 100000 | 5.48 | 5.66 |  |
| CCCN1CCC(N2C[C@@H](NCc3cc(C)ccc3C)C[C@H]2C(=O)NCCc2ccc3c(c2)OCO3)CC1 | 4200 | 6.32 | 6.18 |  |
| CCOc1ccc2[nH]c3c(NCCN(C)C)ncnc3c2c1 | 32500 | 6.11 | 6.36 |  |
| CCCCCCCCCCCCn1ccc(=N)cc1 | 4990 | 6.49 | 6.73 |  |
| CCOC(=O)N1CCC(N2C(=O)c3ccccc3C2Nc2ccc(OCC)cc2)CC1 (configuration not stated) | > 100000 | < 4.90 | 5.59 |  |
| CCOC(=O)C1=C(C)NC2=C(C(=O)CC(c3ccc(OC)c(OC)c3)C2)C1c1ccc(SC)cc1 (configuration not stated) | > 100000 | 6.52 | 6.90 |  |
| Cc1ccc(-n2c(SCc3cccc(C)c3)nnc2C(Cc2ccccc2)NC(=O)NC(C)(C)C)cc1 (configuration not stated) | > 10000 | 6.13 | 6.00 |  |
| O=C(Cc1ccc(Cl)cc1)NNS(=O)(=O)c1ccc([N+](=O)[O-])cc1 | > 10000 | < 6.05 | < 5.86 |  |
| COc1cc(C(=O)Nc2c3c(nn2-c2cc(C)cc(C)c2)CSC3)cc(OC)c1OC | > 1070 | 6.04 | 6.47 |  |
| CC(=O)N1c2ccc(C)cc2C(C)(c2ccccc2)CC1(C)C (configuration not stated) | 45400 | 6.11 | 6.17 |  |
| CC(C)C1c2[nH]c3ccccc3c2CCN1C(=O)CCl (configuration not stated) | > 10000 | 6.30 | 6.42 |  |
| CC[C@]1(C2OC(C3O[C@](O)(CO)[C@@H](C)C[C@H]3C)C[C@H]2C)CCC([C@@]2(C)CC[C@@]3(C[C@@H](O)[C@H](C)C([C@H](C)[C@H](OC)C(C)C(=O)O)O3)O2)O1 (some centres not stated) | 1290 | 8.55 | > 9.06 |  |
